Experimental data reported in patent publication US20050043315A1, “Aminopyrimidine compounds, processes for their preparation and pharmaceutical compositions containing them” (priority 2002, published 2005).

| SMILES | melting point |
| --- | --- |
| CC(C)n1nc(-c2c(-c3ccccc3)nc(N)nc2N2CCCCC2)ccc1=O [Example 126, 6-[2-Amino-4-phenyl-6-(1-piperidinyl)-5-pyrimidinyl]-2-isopropyl-3(2H)-pyridazinone] | 221 to 223 °C |
| CC(C)n1nc(-c2c(-c3ccccc3)nc(N)nc2N2CCOCC2)ccc1=O [Example 127, 6-[2-Amino-4-(4-morpholinyl)-6-phenyl-5-pyrimidinyl]-2-isopropyl-3(2H)-pyridazinone] | 251 to 253 °C |
| CC(C)n1nc(-c2c(-c3ccccc3)nc(N)nc2N2CCNCC2)ccc1=O [Example 128, 6-[2-amino-4-phenyl-6-(1-piperazinyl)-5-pyrimidinyl]-2-isopropyl-3(2H)-pyridazinone] | 254 to 256 °C |
| CC(C)n1nc(-c2c(-c3ccccc3)nc(N)nc2N2CCN(C)CC2)ccc1=O [Example 129, 6-[2-Amino-4-(4-methyl-1-piperazinyl)-6-phenyl-5-pyrimidinyl]-2-isopropyl-3(2H)-pyridazinone] | 213 to 215 °C |
| CC(C)n1nc(-c2c(-c3ccccc3)nc(N)nc2-n2ccnc2)ccc1=O [Example 130, 6-[2-amino-4-(1H-imidazol-1-yl)-6-phenyl-5-pyrimidinyl]-2-isopropyl-3(2H)-pyridazinone] | 255 to 258 °C |
| CC(C)n1nc(-c2c(-c3ccccc3)nc(N)nc2-n2cncn2)ccc1=O [Example 131, 6-[2-Amino-4-phenyl-6-(1H-1,2,4-triazol-1-yl)-5-pyrimidinyl]-2-isopropyl-3(2H)-pyridazinone] | 266 to 268 °C |
| CC(C)n1nc(-c2c(-c3ccccc3)nc(N)nc2-n2cnc3ccccc32)ccc1=O [Example 132, 6-[2-Amino-4-(1H-benzimidazol-1-yl)-6-phenyl-5-pyrimidinyl]-2-isopropyl-3(2H)-pyridazinone] | 242 to 244 °C |
| CC(C)n1nc(-c2c(Nc3ccccc3)nc(N)nc2-c2ccccc2)ccc1=O [Example 133, 6-(2-amino-4-anilino-6-phenyl-5-pyrimidinyl)-2-isopropyl-3(2H)-pyridazinone] | 240 to 242 °C |
| Cc1nc(Nc2nc(N)nc(-c3ccccc3)c2-c2ccc(=O)n(C(C)C)n2)sc1C [Example 134, 6-{2-Amino-4-[(4,5-dimethyl-1,3-thiazol-2-yl)amino]-6-phenyl-5-pyrimidinyl}-2-isopropyl-3(2H)-pyridazinone] | 256 to 257.5 °C |
| CC(C)n1nc(-c2c(Nc3ccccn3)nc(N)nc2-c2ccccc2)ccc1=O [Example 135, 6-[2-Amino-4-phenyl-6-(2-pyridinylamino)-5-pyrimidinyl]-2-isopropyl-3(2H)-pyridazinone] | 163 to 164 °C |
| CC(C)n1nc(-c2c(NC(=N)N)nc(N)nc2-c2ccccc2)ccc1=O [Example 137, N-[2-amino-5-(1-isopropyl-6-oxo-1,6-dihydro-3-pyridazinyl)-6-phenyl-4-pyrimidinyl]guanidine] | 272 to 274.5 °C |
| CC(C)n1nc(-c2c(Sc3ccccc3)nc(N)nc2-c2ccccc2)ccc1=O [Example 138, 6-[2-Amino-4-phenyl-6-(phenylthio)-5-pyrimidinyl]-2-isopropyl-3(2H)-pyridazinone] | 214 to 215 °C |
| CC(C)n1nc(-c2c(-c3ccccc3)nc(N)[nH]c2=O)ccc1=O [Example 140, 6-(2-amino-6-oxo-4-phenyl-1,6-dihydro-5-pyrimidinyl)-2-isopropyl-3(2H)-pyridazinone] | 291 to 295 °C |
| CC(C)n1nc(-c2c(-c3ccccc3)nc(N)[nH]c2=S)ccc1=O [Example 141, 6-(2-amino-4-phenyl-6-thioxo-1,6-dihydro-5-pyrimidinyl)-2-isopropyl-3(2H)-pyridazinone] | 295 to 299 °C |
| CSc1nc(N)nc(-c2ccccc2)c1-c1ccc(=O)n(C)n1 [Example 142, 6-[2-Amino-4-(methylthio)-6-phenyl-5-pyrimidinyl]-2-methyl-3(2H)-pyridazinone] | 233 to 235 °C |
| Cn1nc(-c2c(-c3ccccc3)nc(N)nc2[S+](C)[O-])ccc1=O (centres unmarked) [Example 143, 6-[2-amino-4-(methylsulfinyl)-6-phenyl-5-pyrimidinyl]-2-methyl-3(2H)-pyridazinone] | > 250 °C |
| COc1nc(N)nc(-c2ccccc2)c1-c1ccc(=O)n(C)n1 [Example 144, 6-(2-Amino-4-methoxy-6-phenyl-5-pyrimidinyl)-2-methyl-3(2H)-pyridazinone] | 218 to 220 °C |
| Cn1nc(-c2c(NCc3ccccc3)nc(N)nc2-c2ccccc2)ccc1=O [Example 145, 6-[2-Amino-4-(benzylamino)-6-phenyl-5-pyrimidinyl]-2-methyl-3(2H)-pyridazinone] | > 250 °C |
| Cn1nc(-c2c(NCc3ccccn3)nc(N)nc2-c2ccccc2)ccc1=O [Example 146, 6-{2-amino-4-phenyl-6-[(2-pyridinylmethyl)amino]-5-pyrimidinyl}-2-methyl-3(2H)-pyridazinone] | 248 to 250 °C |
| Cn1nc(-c2c(Nc3ccccc3)nc(N)nc2-c2ccccc2)ccc1=O [Example 147, 6-(2-Amino-4-anilino-6-phenyl-5-pyrimidinyl)-2-methyl-3(2H)-pyridazinone] | 252 to 254 °C |
| CSc1nc(N)nc(-c2ccc(F)cc2)c1-c1ccc(=O)n(C(C)C)n1 [Example 148, 6-[2-amino-4-(4-fluorophenyl)-6-(methylthio)-5-pyrimidinyl]-2-isopropyl-3(2H)-pyridazinone] | 232 to 234 °C |

The next lines start with the values.

| melting point | SMILES |
| --- | --- |
| 207 to 209 °C | COc1nc(N)nc(-c2ccc(F)cc2)c1-c1ccc(=O)n(C(C)C)n1 [Example 149, 6-[2-amino-4-(4-fluorophenyl)-6-methoxy-5-pyrimidinyl]-2-isopropyl-3(2H)-pyridazinone] |
| 148 to 151 °C | COc1nc(N)nc(-c2ccc(S(C)(=O)=O)cc2)c1-c1ccc(=O)n(C(C)C)n1 [Example 150, 6-{2-amino-4-methoxy-6-[4-(methylsulfonyl)phenyl]-5-pyrimidinyl}-2-isopropyl-3(2H)-pyridazinone] |
| 238 to 240 °C | CC(C)n1nc(-c2c(-c3ccc(F)cc3)nc(N)nc2[S+](C)[O-])ccc1=O (centres unmarked) [Example 151, 6-[2-amino-4-(4-fluorophenyl)-6-(methylsulfinyl)-5-pyrimidinyl]-2-isopropyl-3(2H)-pyridazinone] |
| 241 to 243 °C | CSc1nc(N)nc(-c2ccc(S(C)(=O)=O)cc2)c1-c1ccc(=O)n(C(C)C)n1 [Example 151, 6-[2-amino-4-[4-(methylsulfonyl)phenyl]-6-(methylthio)-5-pyrimidinyl]-2-isopropyl-3(2H)-pyridazinone] |
| 221 to 223 °C | CSc1nc(N)nc(-c2ccc([S+](C)[O-])cc2)c1-c1ccc(=O)n(C(C)C)n1 (centres unmarked) [Example 152, 6-[2-amino-4-[4-(methylsulfinyl)phenyl]-6-(methylthio)-5-pyrimidinyl]-2-isopropyl-3(2H)-pyridazinone] |
| 127 to 130 °C | COc1nc(N)nc(-c2ccc([S+](C)[O-])cc2)c1-c1ccc(=O)n(C(C)C)n1 (centres unmarked) [Example 153, 6-{2-Amino-4-methoxy-6-[4-(methylsulfinyl)phenyl]-5-pyrimidinyl}-2-isopropyl-3(2H)-pyridazinone] |
| 191 to 192 °C | CC(C)n1nc(-c2c(NCc3ccccc3)nc(N)nc2-c2ccc(F)cc2)ccc1=O [Example 156, 6-[2-Amino-4-(benzylamino)-6-(4-fluorophenyl)-5-pyrimidinyl]-2-isopropyl-3(2H)-pyridazinone] |
| 210 to 212 °C | CC(C)n1nc(-c2c(NCc3ccccn3)nc(N)nc2-c2ccc(F)cc2)ccc1=O [Example 157, 6-{2-Amino-4-(4-fluorophenyl)-6-[(2-pyridinylmethyl)amino]-5-pyrimidinyl}-2-isopropyl-3(2H)-pyridazinone] |
| > 250 °C | CC(C)n1nc(-c2c(Nc3ccccc3)nc(N)nc2-c2ccc(F)cc2)ccc1=O [Example 158, 6-[2-Amino-4-anilino-6-(4-fluorophenyl)-5-pyrimidinyl]-2-isopropyl-3(2H)-pyridazinone] |
| 138 to 141 °C | CC(C)n1nc(-c2c(-c3ccccc3)nc(N)n(CC(=O)OC(C)(C)C)c2=O)ccc1=O [Example 159, tert-butyl [2-amino-5-(1-isopropyl-6-oxo-1,6-dihydro-3-pyridazinyl)-6-oxo-4-phenyl-1(6H)-pyrimidinyl]acetate] |
| 160 to 162 °C | CC(C)n1nc(-c2c(OCC(=O)OC(C)(C)C)nc(N)nc2-c2ccccc2)ccc1=O [Example 159, tert-butyl {[2-amino-5-(1-isopropyl-6-oxo-1,6-dihydro-3-pyridazinyl)-6-phenyl-4-pyrimidinyl]-oxy}acetate] |
| 182 to 183 °C | CC(C)n1nc(-c2c(OCC(=O)c3ccccc3)nc(N)nc2-c2ccccc2)ccc1=O [Example 161, 6-[2-Amino-4-(2-oxo-2-phenylethoxy)-6-phenyl-5-pyrimidinyl]-2-isopropyl-3(2H)-pyridazinone] |
| 161 °C | CC(C)CC(=O)Nc1ncc(-c2ccc(=O)n(C(C)C)n2)c(-c2ccccc2)n1 [Example 162, N-[5-(1-isopropyl-6-oxo-1,6-dihydro-3-pyridazinyl)-4-phenyl-2-pyrimidinyl]-3-methylbutanamide] |
| 145 to 147 °C | CC(C)C(=O)Nc1ncc(-c2ccc(=O)n(C(C)C)n2)c(-c2ccccc2)n1 [Example 163, N-[5-(1-isopropyl-6-oxo-1,6-dihydro-3-pyridazinyl)-4-phenyl-2-pyrimidinyl]-2-methylpropanamide] |
| 148 to 150 °C | CCCC(=O)Nc1ncc(-c2ccc(=O)n(C(C)C)n2)c(-c2ccccc2)n1 [Example 164, N-[5-(1-isopropyl-6-oxo-1,6-dihydro-3-pyridazinyl)-4-phenyl-2-pyrimidinyl]butanamide] |
| 195 to 198 °C | CC(C)n1nc(-c2cnc(NC(=O)C3CCCCC3)nc2-c2ccccc2)ccc1=O [Example 165, N-[5-(1-isopropyl-6-oxo-1,6-dihydro-3-pyridazinyl)-4-phenyl-2-pyrimidinyl]cyclohexanecarboxamide] |
| 94 to 97 °C | COCC(=O)Nc1ncc(-c2ccc(=O)n(C(C)C)n2)c(-c2ccccc2)n1 [Example 166, N-[5-(1-isopropyl-6-oxo-1,6-dihydro-3-pyridazinyl)-4-phenyl-2-pyrimidinyl]-2-methoxyacetamide] |
